Literature values, collected in patent publication US8653026B2, “Treatment of type 2 diabetes with FTY720” (Diapin Therapeutics LLC, priority 2011, dated 2014).

Assays:
Conditions in all cases: literature reference (25); cited from earlier work
S1P1 = S1P1 (Homo sapiens, UniProt P21453)
S1P3 = S1P3 (Homo sapiens, UniProt Q99500)
S1P4 = biological target: T1, S1P4 (Homo sapiens, UniProt O95977)
T1 sequence (O95977 1-384): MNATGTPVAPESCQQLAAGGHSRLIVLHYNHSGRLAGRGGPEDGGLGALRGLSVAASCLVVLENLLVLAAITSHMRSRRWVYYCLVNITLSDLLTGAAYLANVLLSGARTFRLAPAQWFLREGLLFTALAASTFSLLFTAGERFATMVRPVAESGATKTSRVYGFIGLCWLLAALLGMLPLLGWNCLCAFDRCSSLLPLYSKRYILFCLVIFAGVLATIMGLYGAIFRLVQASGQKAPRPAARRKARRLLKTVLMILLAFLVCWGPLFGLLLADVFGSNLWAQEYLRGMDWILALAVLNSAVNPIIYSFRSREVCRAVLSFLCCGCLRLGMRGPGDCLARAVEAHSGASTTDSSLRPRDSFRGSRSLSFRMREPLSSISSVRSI

S1P5 = S1P5 (Homo sapiens, UniProt Q9H228)
S1P5, sequence (Q9H228 whole entry, species assumed): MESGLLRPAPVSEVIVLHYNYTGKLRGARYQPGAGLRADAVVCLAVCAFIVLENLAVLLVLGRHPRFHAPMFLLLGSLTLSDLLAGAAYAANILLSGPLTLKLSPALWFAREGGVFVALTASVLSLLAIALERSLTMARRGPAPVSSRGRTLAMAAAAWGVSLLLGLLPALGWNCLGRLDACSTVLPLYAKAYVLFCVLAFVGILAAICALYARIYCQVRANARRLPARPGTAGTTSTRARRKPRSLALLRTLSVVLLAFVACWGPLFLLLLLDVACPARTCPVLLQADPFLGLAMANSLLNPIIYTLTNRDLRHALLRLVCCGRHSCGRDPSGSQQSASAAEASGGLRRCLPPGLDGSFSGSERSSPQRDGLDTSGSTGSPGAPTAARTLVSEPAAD

S1P2 = S1P2 (Homo sapiens, UniProt O95136)
S1P2, sequence (O95136 whole entry, species assumed): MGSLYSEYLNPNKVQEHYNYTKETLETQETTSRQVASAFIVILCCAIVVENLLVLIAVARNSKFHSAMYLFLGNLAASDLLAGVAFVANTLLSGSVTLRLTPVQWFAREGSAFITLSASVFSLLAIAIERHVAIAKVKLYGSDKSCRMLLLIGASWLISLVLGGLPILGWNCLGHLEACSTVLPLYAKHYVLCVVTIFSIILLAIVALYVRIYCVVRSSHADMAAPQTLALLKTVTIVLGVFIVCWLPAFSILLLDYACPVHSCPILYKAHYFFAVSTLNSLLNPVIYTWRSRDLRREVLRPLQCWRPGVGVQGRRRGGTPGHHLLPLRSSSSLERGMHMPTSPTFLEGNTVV

S1P1, sequence (P21453 whole entry, species assumed): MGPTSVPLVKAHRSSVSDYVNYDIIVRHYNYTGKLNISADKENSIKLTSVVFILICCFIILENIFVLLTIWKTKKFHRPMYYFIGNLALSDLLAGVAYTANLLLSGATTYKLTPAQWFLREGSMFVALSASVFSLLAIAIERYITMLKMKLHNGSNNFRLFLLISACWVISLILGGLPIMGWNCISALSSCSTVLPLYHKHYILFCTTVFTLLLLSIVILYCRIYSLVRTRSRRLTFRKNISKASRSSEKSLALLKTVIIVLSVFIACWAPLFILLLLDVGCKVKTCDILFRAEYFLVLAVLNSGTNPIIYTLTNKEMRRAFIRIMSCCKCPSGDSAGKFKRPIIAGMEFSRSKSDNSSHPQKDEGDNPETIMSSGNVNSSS
S1P3, sequence (Q99500 whole entry, species assumed): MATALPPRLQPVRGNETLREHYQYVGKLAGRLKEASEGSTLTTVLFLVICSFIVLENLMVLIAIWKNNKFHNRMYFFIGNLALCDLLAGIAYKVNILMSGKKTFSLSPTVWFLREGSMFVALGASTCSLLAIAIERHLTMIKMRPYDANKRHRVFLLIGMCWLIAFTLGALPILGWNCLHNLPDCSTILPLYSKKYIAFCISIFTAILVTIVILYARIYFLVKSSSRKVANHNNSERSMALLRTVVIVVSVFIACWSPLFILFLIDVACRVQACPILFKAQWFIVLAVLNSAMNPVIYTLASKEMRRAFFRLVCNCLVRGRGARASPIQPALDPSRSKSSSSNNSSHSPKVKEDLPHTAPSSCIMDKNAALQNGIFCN

## CCCCCCCCc1ccc(CCC(N)(CO)COP(=O)(O)O)cc1 (centres unmarked) [FTY720-P, 2-amino-2-(hydroxymethyl)-4-(4-octylphenyl)butyl dihydrogen phosphate]
S1P1
  binding to S1P1: binds
S1P3
  binding to S1P3: binds
S1P4
  binding to S1P4: binds
S1P5
  binding to S1P5: binds
S1P2
  binding to S1P2: but not S1P2
